Assay results as given in patent EP4621052A1, “IMMUNE CELL TARGETING PROBE, PRE-TARGETING RECOGNITION AND DRUG DELIVERY SYSTEM BASED ON PROBE, AND USE THEREOF” (Guangdong Keyangle Life Technology Co., Ltd., priority 2022, dated 2024).
Where no end group is shown, it is not given here.

T1: Peptide segment KL19 (KEQPDPGAVAAAAILRAIL)
T1 construct: Synthetic peptide used as ELISA coating antigen; Derived from the C-terminal fragment of Triokinase/FMN cyclase, with an added N-terminal K
T1 peptide: KEQPDPGAVAAAAILRAIL

B1: KA-001 monoclonal antibody (antibody, mouse IgG1, kappa, V domains shown)
VH: DVKIVESGGGLVKLGGSLKLSCAASGFTFSRNYMSWVRQTPEKRLELVAGINNNGGSTYYPDTVKGRFTISRDNAKNTLYLQMSSLRSEDTAIYYCAKRGFITTVGAMDYWGQGISVTVSS
VL: DIQMTQTTFSLSASLGDRVTISCRASQDISNYLNWYQQIPDGTVKLLIYYTSRLHSGVPSRFSGSGSGTDYSLTISNLEQEDIATYFCQQVHTLPYTFGGGTKLEMKR

Assays:
peritoneal macrophages = experiment: in vivo labeling of peritoneal macrophages by targeting polypeptide with pre-targeting binding handle; design: species or system Kunming mice; conditions: 10 µM peptide premixed with Strep-PE, intraperitoneal injection, 4 h; F4/80-APC counterstain; flow cytometry
Procedure: • (1) In vivo labeling of peritoneal macrophages by targeting polypeptides connected with pre-targeting binding handles: In this example, the targeting polypeptides KS24 (amino acid sequence: […] (SEQ ID NO: 29)) and KS29 (amino acid sequence: […] (SEQ ID NO: 30)) were used. The pre-targeting binding handle was biotin. The biotinylation steps of the targeting polypeptides were as follows: the biotinylation of targeting polypeptides was carried out by adding biotinylated amino acids during peptide synthesis, so that the biotinylation sites can be controlled. Two biotinylated targeting polypeptides (bio-KS24 and bio-KS29) were respectively connected to phycoerythrin-labeled streptavidin (Strep-PE), where streptavidin served as a linker, and the phycoerythrin was connected through the specific binding of the linker to the pre-targeting binding handle (biotin-avidin system) to the targeting polypeptide for immune cell labeling and tracing. The mixtures were incubated together at room temperature for 1 h. In a 100 µL reaction system, the final concentration of the biotinylated targeting polypeptide was 10 µM, and 1 µL of Strep-PE was added. After the incubation, two groups of healthy female Kunming mice (3 mice in each group) were selected. […] After incubation, the cells were washed twice with 1× PBS and analyzed using flow cytometry. […]

[1] = system: peripheral blood of Kunming mice; experiment: labeling of peripheral blood with targeting polypeptide with pre-targeting binding handle, flow cytometry; type: cell-based; conditions: 10 µM peptide; for staining of cell populations in peripheral blood: 4°C 30 min, Strep-PE, CD19 and CD5 antibodies; for identity of the labeled B lymphocyte population: CD19 and CD5 counterstain
Description: (2) Labeling of peripheral blood with the targeting polypeptide connected with pre-targeting binding handle: Healthy Kunming mice were taken and killed by cervical dislocation, and their peripheral blood was collected using anticoagulant blood vessels.
KS24 and KS29 were biotinylated according to the method described in (1) to obtain targeting polypeptides bio-KS24 and bio-KS29 connected with pre-targeting binding handle. The targeting polypeptides bio-KS24 and bio-KS29 each connected with the pre-targeting binding handle were added to 50 µL of peripheral blood samples, respectively, to be diluted to 100 µL with 1×PBS so that the concentration of the targeting polypeptides bio-KS24 and bio-KS29 connected with the pre-targeting binding handle in the solution was 10 µM, and the mixture was incubated at 4°C for 30 min. After the incubation, red blood cells in the peripheral blood were lysed using a conventional red blood cell lysis reagent in the art according to the instructions, washed twice with 1×PBS, resuspended with 100 µL of 1×PBS, and 1 µL/tube of phycoerythrin-labeled Strep-PE, 0.5 µL/tube of anti-mouse CD19 Antibody, and 0.5 µL/tube of FITC anti-mouse CD5 Antibody were added, and incubated at room temperature for 1 h. After the incubation, the cells were washed twice with 1× PBS and analyzed by flow cytometry.

[2] = system: peritoneal free macrophages; experiment: pre-targeting delivery after intraperitoneal injection, free peritoneal cells, fluorescence microscopy; type: in vivo, Kunming mice; conditions: peptide 10 µM intraperitoneal, Strep-PE intraperitoneal 3 h later, killed 1 h later; F4/80-APC counterstain
Procedure: (§1) The specific experimental steps are as follows: Biotinylated targeting polypeptides bio-KS24 and bio-KS29 (i.e., targeting polypeptides connected with the pre-targeting binding handles) were prepared according to the steps described in the above examples.
(§2) The targeting polypeptides (bio-KS24 and bio-KS29) connected with the pre-targeting binding handles were prepared, respectively, with a final concentration of 10 µM and a final volume of 100 µL. Then, the mixture was diluted with PBS to 4 times of the original volume (i.e., 100 µL of the mixed system was diluted to 400 µL), and then injected into Kunming mice intraperitoneally, with an injection volume of 400 µL per mouse. After the injection of the targeted polypeptide for 3 h, 5 µL Trep-PE was diluted into 100 µL of 1× PBS and intraperitoneally injected into mice. The mice were killed 1 h after the injection, and free peritoneal cells and mesentery were extracted and counterstained with F4/80-APC antibody. After incubation, the cells were washed twice with 1× PBS and observed under a fluorescence microscope.
(§3) Untreated healthy mice were used as controls.

[3] = system: macrophages on the mesentery; experiment: pre-targeting delivery after intraperitoneal injection, mesentery, fluorescence microscopy; type: in vivo, Kunming mice; conditions: peptide 10 µM intraperitoneal, Strep-PE intraperitoneal 3 h later, killed 1 h later; F4/80-APC counterstain
Procedure: as §1, §2, §3

[4] = target: T1, Peptide segment KL19 …; experiment: indirect ELISA, peptide as coating antigen

Row | Molecule | recognition of macrophages in peritoneal cells (peritoneal macrophages) | staining of cell populations in peripheral blood [1] | identity of the labeled B lymphocyte population [1] | pre-labeling of free peritoneal macrophages [2] | pre-labeling of macrophages on the mesentery [3] | binding result [4]
1 | bio-KS24: biotinylated targeting polypeptide KS24, KEQPDPGAVAAAAILRAILEVLQS (SEQ ID NO: 29) (also: biotinylated, site not given here) | can selectively recognize macrophages in peritoneal cells of mice | can stain a subset of B lymphocyte population and granulocyte population | CD5^+ B lymphocytes | could pre-label macrophages | could pre-label macrophages on the mesentery | –
2 | bio-KS29: biotinylated targeting polypeptide KS29, KSSARLEQPDPGAVAAAAILRAILEVLQS (SEQ ID NO: 30) (also: biotinylated, site not given here) | can selectively recognize macrophages in peritoneal cells of mice | can stain a subset of B lymphocyte population and granulocyte population | CD5^+ B lymphocytes | could pre-label macrophages | could pre-label macrophages on the mesentery | –
3 | B1 | – | – | – | – | – | no binding
